Results: patent US20090270419A1, “COMBINATIONS OF CLASS-I SPECIFIC HISTONE DEACETYLASE INHIBITORS WITH PROTEASOME INHIBITORS” (priority 2006, published 2009)

Columns and labels:
[1] = system: acetylation of histone H3 and H4 and induction of p21waf1,cip1 in A2780 ovarian carcinoma cells; assay: Acetylation of cellular HDAC 1 substrates and induction of p21waf1,cip1 (Western blot); format: cell-based, human; conditions: 24 h, 0-3000 nM tested
Procedure: Total cell lysates were prepared and analysed by SDS-PAGE. Levels of acetylated H3 and H4 histones, total level of H3 proteins and levels p21^waf1, cip1 protein were detected using appropriate dilutions of rabbit polyclonal and mouse monoclonal antibodies, followed by enhanced chemoluminescence (ECL) detection. […] Antibodies were incubated for either 1-2 h at room temperature or overnight at 4° C. […] Protein-antibody complexes were then visualized by chemiluminescence (Pierce Chemical Co) or fluorescence (Odyssey) according to the manufacturer's instructions. The experiments were performed three times.

[2] = system: acetylation of tubulin and induction of Hsp 70 in A2780 ovarian carcinoma cells; assay: Acetylation of tubulin and induction of Hsp 70 (Western blot, HDAC 6 readout); format: cell-based, human; conditions: 24 h, 0-3000 nM tested
Procedure: Total cell lysates were prepared and analysed by SDS-PAGE. […] Hsp 70 protein was detected with an antibody from Stressgen (Cat. nr. SPA-810), followed by ECL detection. Appropriate dilutions of antibodies were incubated for either 1-2 h at room temperature or overnight at 4° C. In order to control for equal loading, blots were stripped and re-probed with mouse monoclonal anti-actin IgM (Ab-1, Oncogene Research Products). […] Protein-antibody complexes were then visualized by chemiluminescence (Pierce Chemical Co) or fluorescence (Odyssey) according to the manufacturer's instructions. The experiments were performed three times.

[3] = system: HL-60; conditions: HL-60, acute promyelocytic leukemia; 72 hr, MTS
Procedure: (§1) Tumor cells were grown as cell suspension in the corresponding appropriate culture medium at 37° C. in a humidified 5% CO2 incubator. Mycoplasma-free tumor cells were seeded in 96-well flat-bottom microtitration plates and incubated at 37° C. for 24 hr in culture medium containing 10% FCS. […] Cells were then incubated for an additional 72 hr.

[4] = system: U-937; conditions: U-937, lymphoma; 72 hr, MTS
Procedure: as §1

[5] = system: KG-1; conditions: KG-1, acute myelogenous leukemia; 72 hr, MTS
Procedure: as §1

[6] = system: OCI-AML2; conditions: OCI-AML2, acute myeloid leukemia; 72 hr, MTS
Procedure: as §1

[7] = system: SUP-B15; conditions: SUP-B15, acute lymphoblastic leukemia; 72 hr, MTS
Procedure: as §1

[8] = system: Jurkat clone E6-1; conditions: Jurkat clone E6-1, acute lymphoblastic leukemia; 72 hr, MTS
Procedure: as §1

[9] = system: EHEB; conditions: chronic B cell leukemia, 72 hr, MTS
Procedure: as §1

[10] = system: KCL-22; conditions: KCL-22, chronic myeloid leukemia; 72 hr, MTS
Procedure: as §1

[11] = system: RPMI 8226; conditions: RPMI 8226, myeloma; 72 hr, MTS
Procedure: as §1

[12] = system: Ramos; conditions: Burkitt's lymphoma, 72 hr, MTS
Procedure: as §1

[13] = system: ARH-77; conditions: ARH-77, myeloma; 72 hr, MTS
Procedure: as §1

[14] = system: Namalwa; conditions: Burkitt's lymphoma, 72 hr, MTS
Procedure: as §1

[15] = system: Raji; conditions: Burkitt's lymphoma, 72 hr, MTS
Procedure: as §1

[16] = system: CCRF-CEM; conditions: acute lymphoblastic leukemia, 72 hr, MTS
Procedure: as §1

[17] = system: K-562; conditions: K-562, chronic myeloid leukemia; 72 hr, MTS
Procedure: as §1

[18] = system: Daudi; conditions: Burkitt's lymphoma, 72 hr, MTS
Procedure: as §1

[19] = system: LAMA-84; conditions: LAMA-84, chronic myeloid leukemia in blast crisis; 72 hr, MTS
Procedure: as §1

[20] = system: MOLT-4; conditions: MOLT-4, acute lymphoblastic leukemia; 72 hr, MTS
Procedure: as §1

[21] = system: BV-173; conditions: BV-173, chronic B cell leukemia; 72 hr, MTS
Procedure: as §1

[22] = system: THP-1; conditions: THP-1, acute monocytic leukemia; 72 hr, MTS
Procedure: as §1

[23] = system: p21waf1,cip1 deficient cells as compared to the parental HCT-116 cells; conditions: p21waf1,cip1 deficient cells vs parental HCT-116 cells; cited from earlier work

Structure (SMILES): Cn1cc(CNCC2CCN(c3ncc(C(=O)NO)cn3)CC2)c2ccccc21 [JNJ 26481585]
- concentration when induction of acetylation of histone H3 and H4 and induction of p21waf1,cip1 is observed [1]: 10 nM
- concentration when start of induction of acetylation of tubulin and induction of Hsp 70 is observed [2]: 30 nM

Structure (SMILES): O=C(NO)c1cnc(N2CCN(S(=O)(=O)c3ccc4ccccc4c3)CC2)nc1 [R306465]
- mean IC40 (concentration required to reach 40% inhibition of cell proliferation) [3]: 86.76 nM
- mean IC40 (concentration required to reach 40% inhibition of cell proliferation) [4]: 154.68 nM
- mean IC40 (concentration required to reach 40% inhibition of cell proliferation) [5]: 170.59 nM
- mean IC40 (concentration required to reach 40% inhibition of cell proliferation) [6]: 267.92 nM
- mean IC40 (concentration required to reach 40% inhibition of cell proliferation) [7]: 15.67 nM
- mean IC40 (concentration required to reach 40% inhibition of cell proliferation) [8]: 56.19 nM
- mean IC40 (concentration required to reach 40% inhibition of cell proliferation) [9]: 486.62 nM
- concentration when induction of acetylation of histone H3 and H4 and induction of p21waf1,cip1 is observed [1]: 100 nM
- mean IC40 (concentration required to reach 40% inhibition of cell proliferation) [10]: 89.88 nM
- mean IC40 (concentration required to reach 40% inhibition of cell proliferation) [11]: 37.59 nM
- mean IC40 (concentration required to reach 40% inhibition of cell proliferation) [12]: 66.08 nM
- mean IC40 (concentration required to reach 40% inhibition of cell proliferation) [13]: 207.27 nM
- mean IC40 (concentration required to reach 40% inhibition of cell proliferation) [14]: 49.25 nM
- mean IC40 (concentration required to reach 40% inhibition of cell proliferation) [15]: 221.09 nM
- mean IC40 (concentration required to reach 40% inhibition of cell proliferation) [16]: 78.79 nM
- mean IC40 (concentration required to reach 40% inhibition of cell proliferation) [17]: 80.76 nM
- mean IC40 (concentration required to reach 40% inhibition of cell proliferation) [18]: 454.11 nM
- mean IC40 (concentration required to reach 40% inhibition of cell proliferation) [19]: 165.89 nM
- mean IC40 (concentration required to reach 40% inhibition of cell proliferation) [20]: 155.83 nM
- mean IC40 (concentration required to reach 40% inhibition of cell proliferation) [21]: 26.33 nM
- mean IC40 (concentration required to reach 40% inhibition of cell proliferation) [22]: 446.29 nM
- concentration when start of induction of acetylation of tubulin and induction of Hsp 70 is observed [2]: 1000 nM

Structure (SMILES): O=C(CCCCCCC(=O)Nc1ccccc1)NO [SAHA, suberoylanilide hydroxamic acid]
- concentration when induction of acetylation of histone H3 and H4 and induction of p21waf1,cip1 is observed [1]: 3000 nM
- concentration when start of induction of acetylation of tubulin and induction of Hsp 70 is observed [2]: 100 nM

Structure (SMILES): CC(/C=C/C(=O)NO)=C\[C@@H](C)C(=O)c1ccc(N(C)C)cc1 [trichostatin A]
- increase in resistance to the HDAC inhibitor [23]: 6 fold
